What is called IC50 is the midpoint of a concentration-inhibition curve.

Calls of active or inactive are those of the source. The rule behind the calls is not given here. Where only a bound is given, the exact number is not on record here.

Experimental findings from ChEMBL document CHEMBL3124796, “Suzuki coupling based synthesis and in vitro cytotoxic evaluation of 7-heteroaryl-substituted camptothecin analogs” (Bioorg Med Chem Lett, 2014) are described below.

The first test addresses T1, DNA topoisomerase 1 (Homo sapiens) (UniProt P11387).
T1 sequence (whole entry): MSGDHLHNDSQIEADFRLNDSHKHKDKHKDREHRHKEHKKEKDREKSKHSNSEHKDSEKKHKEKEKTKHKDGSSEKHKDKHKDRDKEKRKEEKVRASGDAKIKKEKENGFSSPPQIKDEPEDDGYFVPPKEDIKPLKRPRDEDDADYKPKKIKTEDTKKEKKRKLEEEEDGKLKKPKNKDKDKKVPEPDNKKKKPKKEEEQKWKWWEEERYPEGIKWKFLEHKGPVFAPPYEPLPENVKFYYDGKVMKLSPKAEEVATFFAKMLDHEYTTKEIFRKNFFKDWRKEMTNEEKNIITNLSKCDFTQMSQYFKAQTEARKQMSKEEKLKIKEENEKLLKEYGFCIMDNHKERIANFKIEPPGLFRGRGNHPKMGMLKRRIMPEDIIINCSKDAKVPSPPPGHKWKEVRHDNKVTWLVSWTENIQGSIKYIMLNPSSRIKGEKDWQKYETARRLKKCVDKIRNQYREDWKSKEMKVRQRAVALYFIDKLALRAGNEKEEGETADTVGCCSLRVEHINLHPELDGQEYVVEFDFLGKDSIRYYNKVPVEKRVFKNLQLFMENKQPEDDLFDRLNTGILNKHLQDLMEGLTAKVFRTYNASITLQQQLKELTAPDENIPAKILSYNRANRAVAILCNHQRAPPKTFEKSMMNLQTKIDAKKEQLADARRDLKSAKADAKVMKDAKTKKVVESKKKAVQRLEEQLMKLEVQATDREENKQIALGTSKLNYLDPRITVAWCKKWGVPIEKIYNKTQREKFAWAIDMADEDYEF
In words: Inhibition of topoisomerase 1 (unknown origin)-mediated relaxation of supercoiled pBR322 DNA at 10 uM by agarose gel electrophoresis.
Details: not given
On to `CC[C@@]1(O)C(=O)OCc2c1cc1n(c2=O)Cc2c-1nc1ccccc1c2-c1cnn(C)c1`, for which the inhibition result is “Active”.

In a further test the target is T1, DNA topoisomerase 1 (Homo sapiens). In words: Inhibition of topoisomerase 1 (unknown origin)-mediated relaxation of supercoiled pBR322 DNA at 100 uM by agarose gel electrophoresis.
Details: not given
For `CC[C@@]1(O)C(=O)OCc2c1cc1n(c2=O)Cc2c-1nc1ccccc1c2-c1cnn(C)c1`, the inhibition entry is “Active”.
In the case of `CC[C@@]1(O)C(=O)OCc2c1cc1n(c2=O)Cc2c-1nc1ccccc1c2-c1cccnc1`, the inhibition entry was “inactive”.
`CC[C@@]1(O)C(=O)OCc2c1cc1n(c2=O)Cc2c-1nc1ccccc1c2-c1ccnn1C`: the inhibition result was “inactive”.
Consider `CC[C@@]1(O)C(=O)OCc2c1cc1n(c2=O)Cc2c-1nc1ccccc1c2-c1ccc2cn[nH]c2c1`, for which the inhibition result is “Active”.
In the case of `CC[C@@]1(O)C(=O)OCc2c1cc1n(c2=O)Cc2c-1nc1ccccc1c2-c1ccc2cc[nH]c2c1`, the inhibition result was “Active”.
Turning to `CC[C@@]1(O)C(=O)OCc2c1cc1n(c2=O)Cc2c-1nc1ccccc1c2-c1cnn(C2CCCCO2)c1` (stereo partly drawn), the inhibition result is “Active”.
`CC[C@@]1(O)C(=O)OCc2c1cc1n(c2=O)Cc2c-1nc1ccccc1c2-c1ccncc1`: the inhibition entry is “inactive”.

In the next test the test system is HT-29. Briefly: Cytotoxicity against human HT-29 cells assessed as growth inhibition after 3 days by SRB assay. In kind it is functional, cell-based. Conditions: HT-29, 72 h. For orientation: In SRB staining, fixed cells bind dye roughly in proportion to their protein.
As for `CC[C@@]1(O)C(=O)OCc2c1cc1n(c2=O)Cc2c-1nc1ccccc1c2-c1cnn(C)c1`, the IC50 came to 21.8 nM.
As for `CC[C@@]1(O)C(=O)OCc2c1cc1n(c2=O)Cc2c-1nc1ccccc1c2-c1cccnc1`, the IC50 was 133 nM.
Same read-out and setting: under `CCc1c2c(nc3ccc(O)cc13)-c1cc3c(c(=O)n1C2)COC(=O)[C@]3(O)CC` [7-ETHYL-10-HYDROXYCAMPTOTHECIN] stands 107 nM.
Take `CC[C@@]1(O)C(=O)OCc2c1cc1n(c2=O)Cc2c-1nc1ccccc1c2-c1ccnn1C`: the IC50 is over 1000 nM.
As for `CC[C@@]1(O)C(=O)OCc2c1cc1n(c2=O)Cc2c-1nc1ccccc1c2-c1ccc2cn[nH]c2c1`, the half-inhibitory concentration (IC50) was 57 nM.
`CC[C@@]1(O)C(=O)OCc2c1cc1n(c2=O)Cc2c-1nc1ccccc1c2-c1ccc2cc[nH]c2c1`: the concentration for half-maximal inhibition (IC50) stood at 231 nM.
On to `CC[C@@]1(O)C(=O)OCc2c1cc1n(c2=O)Cc2c-1nc1ccccc1c2-c1cnn(C2CCCCO2)c1` (stereo partly drawn), for which the IC50 came out at 90.7 nM.
Consider `CC[C@@]1(O)C(=O)OCc2c1cc1n(c2=O)Cc2c-1nc1ccccc1c2-c1ccncc1`, for which the concentration for half-maximal inhibition (IC50) amounted to 98.7 nM.

The next test relates to HCT-116. In words: Cytotoxicity against human HCT116 cells assessed as growth inhibition after 3 days by SRB assay. In kind it is functional, cell-based. Conditions: HCT-116, 72 h.
With `CC[C@@]1(O)C(=O)OCc2c1cc1n(c2=O)Cc2c-1nc1ccccc1c2-c1cnn(C)c1`, the IC50 is 3.51 nM.
Still for that read-out and setting: under `CC[C@@]1(O)C(=O)OCc2c1cc1n(c2=O)Cc2c-1nc1ccccc1c2-c1cccnc1` stands 60 nM.
`CCc1c2c(nc3ccc(O)cc13)-c1cc3c(c(=O)n1C2)COC(=O)[C@]3(O)CC` [7-ETHYL-10-HYDROXYCAMPTOTHECIN]: the half-inhibitory concentration (IC50) amounted to 31 nM.
Turning to `CC[C@@]1(O)C(=O)OCc2c1cc1n(c2=O)Cc2c-1nc1ccccc1c2-c1ccnn1C`, the IC50 was found to be 458 nM.
On the same count and under the same terms, then `CC[C@@]1(O)C(=O)OCc2c1cc1n(c2=O)Cc2c-1nc1ccccc1c2-c1ccc2cn[nH]c2c1`, with 11 nM.
With `CC[C@@]1(O)C(=O)OCc2c1cc1n(c2=O)Cc2c-1nc1ccccc1c2-c1ccc2cc[nH]c2c1`, the IC50 was determined as 83.5 nM.
As for `CC[C@@]1(O)C(=O)OCc2c1cc1n(c2=O)Cc2c-1nc1ccccc1c2-c1cnn(C2CCCCO2)c1` (stereo partly drawn), the IC50 was determined as 40 nM.
For the molecule `CC[C@@]1(O)C(=O)OCc2c1cc1n(c2=O)Cc2c-1nc1ccccc1c2-c1ccncc1`, the concentration for half-maximal inhibition (IC50) was 45.5 nM.

For another test, the system named is A549. Briefly: Cytotoxicity against human A549 cells assessed as growth inhibition after 3 days by SRB assay. The format is functional, cell-based. Conditions: A549, 72 h.
Consider `CC[C@@]1(O)C(=O)OCc2c1cc1n(c2=O)Cc2c-1nc1ccccc1c2-c1cnn(C)c1`, for which the half-inhibitory concentration (IC50) amounted to 2.85 nM.
On to `CC[C@@]1(O)C(=O)OCc2c1cc1n(c2=O)Cc2c-1nc1ccccc1c2-c1cccnc1`, for which the 50% inhibitory concentration (IC50) amounted to 5 nM.
Same read-out and setting: under `CCc1c2c(nc3ccc(O)cc13)-c1cc3c(c(=O)n1C2)COC(=O)[C@]3(O)CC` [7-ETHYL-10-HYDROXYCAMPTOTHECIN] stands 2.72 nM; under `CC[C@@]1(O)C(=O)OCc2c1cc1n(c2=O)Cc2c-1nc1ccccc1c2-c1ccnn1C`, 56.3 nM; under `CC[C@@]1(O)C(=O)OCc2c1cc1n(c2=O)Cc2c-1nc1ccccc1c2-c1ccc2cn[nH]c2c1`, 3.18 nM.
Regarding `CC[C@@]1(O)C(=O)OCc2c1cc1n(c2=O)Cc2c-1nc1ccccc1c2-c1ccc2cc[nH]c2c1`, the IC50 turned out to be 11.1 nM.
On to `CC[C@@]1(O)C(=O)OCc2c1cc1n(c2=O)Cc2c-1nc1ccccc1c2-c1cnn(C2CCCCO2)c1` (stereo partly drawn), for which the 50% inhibitory concentration (IC50) came out at 7.26 nM.
Turning to `CC[C@@]1(O)C(=O)OCc2c1cc1n(c2=O)Cc2c-1nc1ccccc1c2-c1ccncc1`, the IC50 was 6.33 nM.

A further test has as its system A549. Briefly: Cytotoxicity against human A549 cells. The format is functional, cell-based.
Details: not given
The molecule `CCCCn1cc(-c2c3c(nc4ccccc24)-c2cc4c(c(=O)n2C3)COC(=O)[C@]4(O)CC)nn1` came in with a concentration for half-maximal inhibition (IC50) of under 10 nM.
`CCc1c2c(nc3ccc(O)cc13)-c1cc3c(c(=O)n1C2)COC(=O)[C@]3(O)CC` [7-ETHYL-10-HYDROXYCAMPTOTHECIN] displayed a 50% inhibitory concentration (IC50) of 259 nM.

A further test deals with HCT-116. Briefly: Cytotoxicity against human HCT116 cells. In kind it is functional, cell-based.
Details: not given
In the case of `CCCCn1cc(-c2c3c(nc4ccccc24)-c2cc4c(c(=O)n2C3)COC(=O)[C@]4(O)CC)nn1`, it took 14 nM to reach half-maximal inhibition (IC50).
Same read-out and setting: then `CCc1c2c(nc3ccc(O)cc13)-c1cc3c(c(=O)n1C2)COC(=O)[C@]3(O)CC` [7-ETHYL-10-HYDROXYCAMPTOTHECIN], with 166 nM.

Another test deals with MDA-MB-231. In words: Cytotoxicity against human MDA-MB-231 cells.
Details: not given
In kind it is functional, cell-based.
On to `CCCCn1cc(-c2c3c(nc4ccccc24)-c2cc4c(c(=O)n2C3)COC(=O)[C@]4(O)CC)nn1`, for which the concentration for half-maximal inhibition (IC50) is under 10 nM.
For the molecule `CCc1c2c(nc3ccc(O)cc13)-c1cc3c(c(=O)n1C2)COC(=O)[C@]3(O)CC` [7-ETHYL-10-HYDROXYCAMPTOTHECIN], it took 176 nM to reach half-maximal inhibition (IC50).
